pIC50: −log10 of the molar value.
Columns and labels:
[1] = target: T1, Nav 1.7 (Homo sapiens (Human), UniProt Q15858); experiment: Nav 1.7 IWQ in vitro assay (IonWorks Quattro population patch-clamp); format: cell-based; details: 293 cells stably transfected with Nav 1.7; second part of table; read-out: Nav1.7 IWQ IC50 IP
Summary of the method: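 Percent block, measured in duplicate, came from peak minus end-of-pulse current on the 26th −20 mV step, and IC50 was fitted against concentration. Stably transfected 293 cells were recorded in population patch-clamp mode before and after a single test concentration, which was added over 3–8 min while cells were unclamped.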

[2] = target: T1, Nav 1.7; experiment: Nav 1.7 in vitro PX assay (PatchXpress whole cell voltage clamp); format: cell-based; details: 293 cells, human Nav1.7, partially inactivated state; read-out: Nav1.7 PX IC50 IP
Summary of the method: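 Partially inactivated channel state (holding potential for 20–50% inactivation) probed in human Nav1.7-transfected 293 cells by automated patch clamp, test pulse −10 mV for 20 msec.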

T1 sequence (Q15858 whole entry): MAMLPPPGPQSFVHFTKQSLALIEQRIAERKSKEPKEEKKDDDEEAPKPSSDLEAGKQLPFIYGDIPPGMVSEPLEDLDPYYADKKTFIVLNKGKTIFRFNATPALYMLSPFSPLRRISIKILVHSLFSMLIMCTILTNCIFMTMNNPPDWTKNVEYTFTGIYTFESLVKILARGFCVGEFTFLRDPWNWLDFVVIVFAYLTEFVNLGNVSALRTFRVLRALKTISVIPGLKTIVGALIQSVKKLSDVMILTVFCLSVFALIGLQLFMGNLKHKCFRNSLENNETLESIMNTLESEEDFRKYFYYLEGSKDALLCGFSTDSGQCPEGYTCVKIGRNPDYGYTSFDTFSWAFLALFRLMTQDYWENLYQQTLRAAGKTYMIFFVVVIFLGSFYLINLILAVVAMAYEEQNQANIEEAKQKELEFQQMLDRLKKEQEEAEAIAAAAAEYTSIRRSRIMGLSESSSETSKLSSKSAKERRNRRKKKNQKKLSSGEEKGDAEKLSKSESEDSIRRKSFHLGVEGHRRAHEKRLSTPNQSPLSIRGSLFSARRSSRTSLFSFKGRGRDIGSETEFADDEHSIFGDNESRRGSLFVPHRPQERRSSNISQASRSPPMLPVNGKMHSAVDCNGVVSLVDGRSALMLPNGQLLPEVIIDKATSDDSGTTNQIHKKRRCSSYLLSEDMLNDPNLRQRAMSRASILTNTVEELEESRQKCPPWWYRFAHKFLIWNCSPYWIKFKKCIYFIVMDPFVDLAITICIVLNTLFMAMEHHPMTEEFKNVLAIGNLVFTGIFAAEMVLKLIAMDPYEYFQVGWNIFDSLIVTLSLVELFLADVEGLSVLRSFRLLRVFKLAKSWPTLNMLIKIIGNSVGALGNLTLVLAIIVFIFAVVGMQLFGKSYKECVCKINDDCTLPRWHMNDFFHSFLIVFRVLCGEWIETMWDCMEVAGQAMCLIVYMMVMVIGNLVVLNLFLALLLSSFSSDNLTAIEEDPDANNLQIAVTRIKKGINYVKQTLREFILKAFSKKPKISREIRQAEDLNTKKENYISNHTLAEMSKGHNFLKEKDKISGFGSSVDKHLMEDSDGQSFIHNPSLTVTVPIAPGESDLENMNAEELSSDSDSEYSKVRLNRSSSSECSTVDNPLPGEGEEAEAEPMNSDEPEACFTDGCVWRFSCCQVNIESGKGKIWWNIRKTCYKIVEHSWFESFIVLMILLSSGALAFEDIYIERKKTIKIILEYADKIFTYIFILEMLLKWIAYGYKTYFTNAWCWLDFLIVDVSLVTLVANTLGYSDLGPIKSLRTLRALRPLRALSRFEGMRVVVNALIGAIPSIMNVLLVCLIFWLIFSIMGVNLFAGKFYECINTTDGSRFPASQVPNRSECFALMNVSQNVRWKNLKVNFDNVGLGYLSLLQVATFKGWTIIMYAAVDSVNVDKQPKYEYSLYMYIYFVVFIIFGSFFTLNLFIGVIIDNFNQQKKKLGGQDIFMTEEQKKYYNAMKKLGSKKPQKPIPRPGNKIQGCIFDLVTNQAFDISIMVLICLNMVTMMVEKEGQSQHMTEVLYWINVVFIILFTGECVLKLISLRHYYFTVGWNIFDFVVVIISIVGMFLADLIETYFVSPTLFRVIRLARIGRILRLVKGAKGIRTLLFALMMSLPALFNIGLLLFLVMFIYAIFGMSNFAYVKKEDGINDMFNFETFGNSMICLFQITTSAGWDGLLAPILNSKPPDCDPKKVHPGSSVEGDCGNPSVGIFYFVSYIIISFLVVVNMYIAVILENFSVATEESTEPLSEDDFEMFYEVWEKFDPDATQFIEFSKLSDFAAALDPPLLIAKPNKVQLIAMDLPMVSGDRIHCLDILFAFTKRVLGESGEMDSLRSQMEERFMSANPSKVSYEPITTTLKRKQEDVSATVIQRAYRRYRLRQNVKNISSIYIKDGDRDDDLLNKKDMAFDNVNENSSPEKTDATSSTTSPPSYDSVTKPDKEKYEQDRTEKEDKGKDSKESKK

SMILES	pIC50 [1]	pIC50 [2]
COc1ccccc1-c1nccc2cc(S(=O)(=O)Nc3ncns3)ccc12 [Example 194, 1-(2-METHOXYPHENYL)-N-(1,2,4-THIADIAZOL-5-YL)ISOQUINOLINE-6-SULFONAMIDE]	8.00	6.59
COc1cc(C(F)(F)F)ccc1-c1nccc2cc(S(=O)(=O)Nc3ncc(C#N)s3)ccc12 [Example 197, N-(5-CYANOTHIAZOL-2-YL)-1-(2-METHOXY-4-(TRIFLUOROMETHYL)PHENYL)ISOQUINOLINE-6-SULFONAMIDE]	5.53	5.51
COc1cc(-c2cccc(C#N)c2)ccc1-c1nccc2cc(S(=O)(=O)Nc3ccncn3)ccc12 [Example 200, 1-(3′-CYANO-3-METHOXY-[1,1′-BIPHENYL]-4-YL)-N-(PYRIMIDIN-4-YL)ISOQUINOLINE-6-SULFONAMIDE]	7.52	6.37
COc1cc(-c2cccnc2)ccc1-c1nccc2cc(S(=O)(=O)Nc3nccs3)ccc12 [Example 204, 1-(2-METHOXY-4-(PYRIDIN-3-YL)PHENYL)-N-(THIAZOL-2-YL)ISOQUINOLINE-6-SULFONAMIDE]	7.52	6.21
COc1cc(C#N)ccc1-c1nccc2cc(S(=O)(=O)Nc3ccncn3)ccc12 [Example 206, 1-(4-CYANO-2-METHOXYPHENYL)-N-(PYRIMIDIN-4-YL)ISOQUINOLINE-6-SULFONAMIDE]	6.96	5.35
COc1ccccc1-c1ncc(F)c2cc(S(=O)(=O)Nc3nccs3)ccc12 [Example 211, 4-FLUORO-1-(2-METHOXYPHENYL)-N-(THIAZOL-2-YL)ISOQUINOLINE-6-SULFONAMIDE]	8.00	6.60
COc1cc(C(F)(F)F)ccc1-c1ncc(F)c2cc(S(=O)(=O)Nc3nccs3)ccc12 [Example 212, 4-FLUORO-1-(2-METHOXY-4-(TRIFLUOROMETHYL)PHENYL)-N-(THIAZOL-2-YL)ISOQUINOLINE-6-SULFONAMIDE]	7.52	6.57
COc1cc(F)ccc1-c1ncc(F)c2cc(S(=O)(=O)Nc3nccs3)ccc12 [Example 213, 4-FLUORO-1-(4-FLUORO-2-METHOXYPHENYL)-N-(THIAZOL-2-YL)ISOQUINOLINE-6-SULFONAMIDE]	8.00	6.44
COc1cc(Cl)ccc1-c1ncc(F)c2cc(S(=O)(=O)Nc3ccncn3)ccc12 [Example 217, 1-(4-CHLORO-2-METHOXYPHENYL)-4-FLUORO-N-(PYRIMIDIN-4-YL)ISOQUINOLINE-6-SULFONAMIDE]	7.40	6.16
COc1cc(C(F)(F)F)ccc1-c1nc(Cl)cc2cc(S(=O)(=O)Nc3nccs3)ccc12 [Example 219, 3-CHLORO-1-(2-METHOXY-4-(TRIFLUOROMETHYL)PHENYL)-N-(THIAZOL-2-YL)ISOQUINOLINE-6-SULFONAMIDE]	6.77	6.10
COc1cc(C(F)(F)F)ccc1-c1nc(C#N)cc2cc(S(=O)(=O)Nc3nccs3)ccc12 [Example 220, 3-CYANO-1-(2-METHOXY-4-(TRIFLUOROMETHYL)PHENYL)-N-(THIAZOL-2-YL)ISOQUINOLINE-6-SULFONAMIDE]	7.22	6.35

Next, values leading:

pIC50 [1]	pIC50 [2]	SMILES
8.00	6.53	COc1cc(C(F)(F)F)ccc1-c1nccc2cc(S(=O)(=O)Nc3nccs3)ccc12 [Example 196, 1-(2-METHOXY-4-(TRIFLUOROMETHYL)PHENYL)-N-(THIAZOL-2-YL)ISOQUINOLINE-6-SULFONAMIDE]
7.40	6.37	COc1cc(C(F)(F)F)ccc1-c1nccc2cc(S(=O)(=O)Nc3ncc(F)s3)ccc12 [Example 198, N-(5-FLUOROTHIAZOL-2-YL)-1-(2-METHOXY-4-(TRIFLUOROMETHYL)PHENYL)ISOQUINOLINE-6-SULFONAMIDE 2,2,2-TRIFLUOROACETATE]
7.70	6.50	COc1cc(Cl)ccc1-c1nccc2cc(S(=O)(=O)Nc3nccs3)ccc12 [Example 201, 1-(4-CHLORO-2-METHOXYPHENYL)-N-(THIAZOL-2-YL)ISOQUINOLINE-6-SULFONAMIDE]
6.47	6.29	COc1cc(-c2cccc(F)c2)ccc1-c1nccc2cc(S(=O)(=O)Nc3nccs3)ccc12 [Example 202, 1-(3′-FLUORO-3-METHOXY-[1,1′-BIPHENYL]-4-YL)-N-(THIAZOL-2-YL)ISOQUINOLINE-6-SULFONAMIDE 2,2,2-TRIFLUOROACETATE]
6.51	5.48	COc1cc(-c2cnn(C)c2)ccc1-c1nccc2cc(S(=O)(=O)Nc3nccs3)ccc12 [Example 203, 1-(2-METHOXY-4-(1-METHYL-1H-PYRAZOL-4-YL)PHENYL)-N-(THIAZOL-2-YL)ISOQUINOLINE-6-SULFONAMIDE]
7.70	6.33	COc1cc(C#N)ccc1-c1nccc2cc(S(=O)(=O)Nc3nccs3)ccc12 [Example 205, 1-(4-CYANO-2-METHOXYPHENYL)-N-(THIAZOL-2-YL)ISOQUINOLINE-6-SULFONAMIDE]
5.68	5.14	O=S(=O)(Nc1nccs1)c1ccc2c(-c3ccn(-c4ccccc4)c3)nccc2c1 [Example 207, 1-(1-PHENYL-1H-PYRROL-3-YL)-N-(THIAZOL-2-YL)ISOQUINOLINE-6-SULFONAMIDE 2,2,2-TRIFLUOROACETATE]
5.67	4.56	Cc1c(-c2nccc3cc(S(=O)(=O)Nc4nccs4)ccc23)cnn1-c1ccccc1 [Example 208, 1-(5-METHYL-1-PHENYL-1H-PYRAZOL-4-YL)-N-(THIAZOL-2-YL)ISOQUINOLINE-6-SULFONAMIDE 2,2,2-TRIFLUOROACETATE]
7.22	6.41	Cc1cc(Cl)ccc1-c1nccc2cc(S(=O)(=O)Nc3nccs3)ccc12 [Example 209, 1-(4-CHLORO-2-METHYLPHENYL)-N-(THIAZOL-2-YL)ISOQUINOLINE-6-SULFONAMIDE 2,2,2-TRIFLUOROACETATE]
6.85	6.05	Cc1cc(C#N)ccc1-c1nccc2cc(S(=O)(=O)Nc3nccs3)ccc12 [Example 210, 1-(4-CYANO-2-METHYLPHENYL)-N-(THIAZOL-2-YL)ISOQUINOLINE-6-SULFONAMIDE 2,2,2-TRIFLUOROACETATE]
7.70	6.68	COc1cc(C#N)ccc1-c1ncc(F)c2cc(S(=O)(=O)Nc3nccs3)ccc12 [Example 214, 1-(4-CYANO-2-METHOXYPHENYL)-4-FLUORO-N-(THIAZOL-2-YL)ISOQUINOLINE-6-SULFONAMIDE]
7.70	7.07	COc1cc(Cl)ccc1-c1ncc(F)c2cc(S(=O)(=O)Nc3nccs3)ccc12 [Example 215, 1-(4-CHLORO-2-METHOXYPHENYL)-4-FLUORO-N-(THIAZOL-2-YL)ISOQUINOLINE-6-SULFONAMIDE]
7.40	6.25	COc1cc(C(F)(F)F)ccc1-c1ncc(F)c2cc(S(=O)(=O)Nc3ccncn3)ccc12 [Example 216, 4-FLUORO-1-(2-METHOXY-4-(TRIFLUOROMETHYL)PHENYL)-N-(PYRIMIDIN-4-YL)ISOQUINOLINE-6-SULFONAMIDE]
7.15	5.33	COc1cc(C#N)ccc1-c1ncc(F)c2cc(S(=O)(=O)Nc3ccncn3)ccc12 [Example 218, 1-(4-cyano-2-methoxyphenyl)-4-fluoro-N-(pyrimidin-4-yl)isoquinoline-6-sulfonamide]
6.96	5.82	COc1cc2cc(S(=O)(=O)Nc3nccs3)ccc2c(-c2ccc(C(F)(F)F)cc2OC)n1 [Example 221, 3-METHOXY-1-(2-METHOXY-4-(TRIFLUOROMETHYL)PHENYL)-N-(THIAZOL-2-YL)ISOQUINOLINE-6-SULFONAMIDE]

Source: patent US9012443B2 (Amgen Inc., priority 2011, dated 2015)
